Results reported in publication PMC9570599, “Kribbellichelins A and B, Two New Antibiotics from Kribbella sp. CA-293567 with Activity against Several Human Pathogens” (Molecules, 2022).
In brackets after ≈: the same amount, converted by molar mass. Several values for one entry are separate records, joined by “and”; a condition that tells them apart may be missing. Equal values may be shown once. Entries after “also recorded” stand apart in the source; their conditions may differ. Read-outs that look alike come from different tables or passages of the source.

Tests used:
[1] = system: A. baumannii MB-5973; assay: Gram-negative antibacterial growth inhibition assay, A. baumannii; assay type: cell-based, Acinetobacter baumannii; conditions: for activity against A. baumannii (in words): pure compound, up to 128 µg/mL; for maximum activity of growth inhibition plateau, A. baumannii: at concentrations higher than 10 µg/mL
Procedure: (§1) Purification fractions and purified compounds 1–3 and 5 were tested against a wide panel of antimicrobial assays for the growth inhibition of human pathogens including MRSA MB-5393, A. baumannii MB-5973, P. aeruginosa MB-5919, A. fumigatus ATCC-46645, and C. albicans ATCC-64124 as 10-point curves with 1:2 dilutions starting at 128 μg/mL in duplicate, following previously described methodologies. Most of the pathogens were acquired from the American Type Culture Collection (ATCC)(Manassas, VA, USA), except for those already present in our MEDINA bacteria collection (MB). Pathogen panel investigated was selected according to typical reference strains and procedures indicated by the […].
(§2) Gram-negative antibacterial assay was performed following this procedure; thawed stock inoculum from vials was streaked onto MHII agar plates and incubated overnight at 37 °C. Isolated colonies were selected and inoculated in 25 mL of MHII liquid growth medium in 250 mL Erlenmeyer flasks overnight at 37 °C. MHII liquid growth medium was used in a 96-well plate assay, adjusting at 5 × 10^5 colony forming units (cfu)/mL (OD600 nm).
(§3) For the assay, 90 μL/well of the diluted inoculum was mixed with 1.6 μL/well of compound dissolved in DMSO and 8.4 μL/well of MHII or BHI medium for Gram-negative and Gram-positive strains, respectively. Vancomycin was included as an internal plate control for MRSA. A rifampicin, aztreonam, and amphotericin B dose-response curve was used as a positive control against P. aeruginosa, A. baumannii and A. fumigatus, and C. albicans, respectively. Each compound was tested as a 10-point dose-response curve by 1:2 serial dilutions in DMSO starting at 128 µg/mL in duplicate. Total growth was measured using the EnVision® (Redwood City, CA, USA) Multilabel plate reader (Perkin Elmer) with two readings, one at initial time and one after which the microorganism was incubated at 37 °C for 18–20 hours. For the A. fumigatus assay, total growth was measured with a single reading after the incubation.

[2] = system: human hepatoma cell line HepG2 (ATCC HB-8065); assay: MTT cytotoxicity bioassay; assay type: cell-based; conditions: 72 h; for cytotoxicity against HepG2 (in words): up to 40 µg/mL
Procedure: Pure compounds were assayed against the human hepatoma cell line HepG2 (ATCC HB-8065) in an MTT test as 20-point curves with 1:2 dilutions starting at 40 μg/mL in triplicate. Cells were seeded at 10.000 cells/well in a 96-well plate (Corning 96-well TC-treated microplates) for 24 h and after addition of compounds 1–3 and 5 plates were incubated for 72 h. MMS (methylmethanesulfonate, Sigma-Aldrich, 4 mM) was used as the positive control, and DMSO 0.5% as the negative control. After addition of MMT dye (thiazolyl blue tetrazoliumbromide, ACROS Organics), cells were incubated for 2–3 h and supernatant was removed. Resulting formazan crystals were finally dissolved by means of 100 µL DMSO (100%) and absorbance was measured at 570 nm. The obtained data was analyzed using Genedata Screener software (Genedata, Inc., Basel, Switzerland) and Prim 9.4.1 software, from GraphPad was used for titrations representation.

[3] = system: C. albicans ATCC-64124; assay: Antifungal growth inhibition assay, C. albicans; assay type: cell-based, Candida albicans
Procedure: as §1
(§4) The antifungal assay was performed following this methodology; briefly, a thawed stock inoculum suspension from a cryovial of A. fumigatus and C. albicans was streaked onto PDA and Sabouraud Dextrose Agar medium, respectively, and suspended in RPMI-1640 modified medium and incubated at 37 °C for 24 h. Spores concentration of A. fumigatus was determined by counting in Neubauer chamber in order to dilute the culture and obtain an assay inoculum of 2.5 × 10^4 spores/mL. For C. albicans, the OD660 was adjusted to 0.25 using RPMI-1640 modified as diluent and blank. Then, a dilution from the adjusted inoculum was prepared at 1/100 to inoculate 96-well assay plates.
as §3

[4] = system: S. aureus; parameters: method as in PMID 8436549; conditions: previously reported; cited from earlier work
[5] = system: Bacillus subtilis; parameters: method as in PMID 8436549; conditions: previously reported; cited from earlier work
[6] = system: MRSA MB-5393; assay: Gram-positive antibacterial growth inhibition assay, MRSA; assay type: cell-based, methicillin-resistant Staphylococcus aureus; conditions: for activity against MRSA (in words): pure compound, up to 128 µg/mL
Procedure: as §1
For Gram-positive MRSA, a thawed stock inoculum suspension from a cryovial of this microorganism was streaked onto brain heart infusion (BHI) agar plate and incubated at 37 °C overnight to obtain isolated colonies. Single colonies were inoculated into 10 mL of BHI broth medium in 250 mL Erlenmeyer flask and incubated overnight at 37 °C with shaking at 220 rpm and then diluted in order to obtain an assay inoculum of 1.1 × 10^6 CFU/mL [52].
as §3

[7] = system: A. fumigatus ATCC-46645; assay: Antifungal growth inhibition assay, A. fumigatus; assay type: cell-based, Aspergillus fumigatus; conditions: for IC50 / inhibition at 7.2 µg/mL: Aspergillus fumigatus; for inhibition at 7.2 µg/mL: at 7.2 µg/mL (optimal concentration), atypical profile, Eagle effect, read-out: maximum inhibition against A. fumigatus; for decreasing inflection point against A. fumigatus: less inhibition at higher concentrations (Eagle effect)
Procedure: as §1, §4, §3

[8] = system: P. aeruginosa MB-5919; assay: Gram-negative antibacterial growth inhibition assay, P. aeruginosa; assay type: cell-based, Pseudomonas aeruginosa; conditions: for activity against P. aeruginosa (in words): pure compound, up to 128 µg/mL; for maximum activity of growth inhibition plateau, P. aeruginosa: at concentrations higher than 10 µg/mL
Procedure: as §1, §2, §3

[9] = system: Streptococcus faecalis; parameters: method as in PMID 8436549; conditions: previously reported; cited from earlier work
[10] = system: Saccharomyces cerevisiae; parameters: method as in PMID 28074052; conditions: previously reported; cited from earlier work

Structure (SMILES)	activity against A. baumannii (in words) [1]	activity against P. aeruginosa (in words) [8]	maximum activity of growth inhibition plateau, A. baumannii [1]	cytotoxicity against HepG2 (in words) [2]	activity against MRSA (in words) [6]	inhibition at 7.2 µg/mL ([7]; ATCC46645)	decreasing inflection point against A. fumigatus [7]	maximum activity of growth inhibition plateau, P. aeruginosa [8]	further results
CC(C)[C@H]1C(=O)OC[C@@H](NC(=O)c2nc3ccccc3cc2O)C(=O)N2CCCC[C@H]2C(=O)NCC(=O)N(C)CC(=O)N(C)[C@@H](C(C)C)C(=O)OC[C@@H](NC(=O)c2nc3ccccc3cc2O)C(=O)N2CCCC[C@@H]2C(=O)NCC(=O)N(C)CC(=O)N1C [Compound 3, sandramycin]	no antibacterial activity	no antibacterial activity	–	–	–	–	–	–	ED50 cytotoxic activity against HepG2 ([2]; molar value in brackets): 0.00129 µM; IC50 ([3]; Candida albicans, ATCC64124, read-out: IC50 versus C. albicans): 7.55 µg/mL and 6.19 µM; antibiotic activity versus S. aureus (in words) [4]: strong antibiotic activity; antibiotic activity versus Bacillus subtilis (in words) [5]: strong antibiotic activity; IC50 ([6]; Staphylococcus aureus, MRSA, read-out: IC50 versus MRSA MB-5393): 0.31 µg/mL and 250 nM; IC50 ([7]; ATCC46645, read-out: IC50 against A. fumigatus): 5.72 µg/mL and 4.69 µM; antibiotic activity versus Streptococcus faecalis (in words) [9]: strong antibiotic activity
COC(=O)c1cc(O)c(O)c(C(=O)NCCC(=O)N[C@@H](CCCN(O)C(=O)[C@H](CO)NC(=O)CCNC(=O)c2nc(C(=O)OC)cc(O)c2O)C(=O)O)n1 [Compound 1, kribbellichelin A]	minor inhibitory properties	minor inhibitory properties	45%	nor significant cytotoxic activity; also recorded: no relevant cytotoxicity	no activity	40%	~50 µg/mL	30%	IC50 versus C. albicans ([3]; C. albicans ATCC-64124, 10-point curve from 128 µg/mL, duplicate): 11.72 µg/mL (≈ 15.3 µM); IC50 ([3]; C. albicans ATCC-64124, molar value in brackets, read-out: IC50 versus C. albicans): 15.3 µM; IC50 ([3]; Candida albicans, ATCC64124, C. albicans ATCC-64124, 10-point curve from 128 µg/mL, duplicate, read-out: IC50 versus C. albicans): 11.7 µg/mL; IC50 ([3]; Candida albicans, ATCC64124, C. albicans ATCC-64124, molar value in brackets, read-out: IC50 versus C. albicans): 15.2 µM
COC(=O)c1cc(O)c(O)c(C(=O)NCCC(=O)N[C@@H](CCCN(O)C(=O)[C@H](CO)NC(=O)CCNC(=O)c2nc(C(=O)OC)cc(O)c2O)C(=O)OC)n1 [Compound 2, kribbellichelin B]	minor inhibitory properties	minor inhibitory properties	45%	nor significant cytotoxic activity; also recorded: no relevant cytotoxicity	no activity	40%	~50 µg/mL	30%	–
CC(C)CCCCCCCCCCCCCOC[C@@H](O)CO[C@H]1O[C@H](C(=O)O)[C@@H](O[C@H]2O[C@H](CO)[C@@H](O)[C@H](O)[C@H]2O)[C@H](O)[C@H]1O [Compound 5, kribelloside C]	no activity	no activity	–	no relevant cytotoxicity	no activity	–	–	–	activity against C. albicans (in words) ([3]; pure compound, up to 128 µg/mL): no activity; also recorded: not observed; antifungal activity versus Saccharomyces cerevisiae (in words) [10]: interesting activities as an antifungal agent; IC50 ([7]; ATCC46645, A. fumigatus ATCC-46645, read-out: IC50 against A. fumigatus): 13.7 µg/mL (≈ 20.8 µM)
